For data set [1] the following is noted: cold / warm water; cited from earlier work.
Data set [2] relates to mouse lung cancer cells 3LL. The data set can be described thus: MTT in vitro test, cell survival rate of mouse lung cancer cell line 3LL. In kind it is cell-based. The method, then: (§1) In vitro test for the effect of the composition (AG60) of the present invention on mouse lung cancer cells 3LL and human hepatoma cells SK-HEP-1
(§2) Cancer cells used for this test include human hepatoma cell line SK-HEP-1 and mouse lung cancer cell line 3LL, as recommended by the U.S. NCI(National Cancer Institute).
(§3) These cell lines were incubated in the culture media prepared by adding 10% inactivated FBS(fetal bovine serum), 100 μg/ml of streptomycin and 100 units/ml of penicillin to RPMI 1640 medium, at 37° C. in an incubator(Heraus) under 5% CO2 and 100% humidity. […] After 2 days, the survival rate of cells was calculated by carrying out MTT method using determination of dehydrogenase enzyme in cellular mitochondria and measuring the absorbance at 540 nm by means of a spectrophotometer (ELISA reader), to determine the anti-cancer activity of the composition according to the present invention against respective cancer cells. MTT test is a method in which formazan precipitate formed by reduction of MTT with cellular mitochondria dehydrogenase in living cells is dissolved and then the absorbance is measured. Thus, since in vigorously dividing cancer cells the enzyme is fully active, by the action of enzyme MTT is reduced to form the precipitate which can be dissolved to determine the absorbance, thereby identifying the survival rate of respective cells. […]
(Formazan colour is commonly taken as a measure of viable cells.)

For the next data set, the system named is Ehrlich solid tumor. The data set can be described thus: Comparative test for inhibition of Ehrlich solid tumor proliferation. In kind it is in vivo, mouse. The note with it: An 15, Gh 15, AG60 30 mg/kg; for size of cancer tissue (solid tumor proliferation): i.m. once a day. The method, then:
Comparative test for inhibition of Ehrlich solid tumor proliferation with acriflavine neutral(An), guanosine hydrate(Gh) and the composition(AG60) of the present invention
Normal 20 ICR mice(.male., 20±1 g) were divided into 4 groups such that each group included 5 mice. Ehrlich cancer cells were transplanted into the inguinal area of all experimental animals in an amount of 1×10^7 cells per animal. After 24 hours, the control group A received physiological saline in an amount of 10 ml/kg by intramuscular injection, once a day, for 15 days. As the comparative groups, the groups B and C received acriflavine neutral(An) in an amount of 15 mg/kg and guanosine hydrate(Gh) in an amount of 15 mg/kg, respectively, in the same manner as the control group. To the group D the composition (AG60) of the present invention was administered in an amount of 30 mg/kg in the same manner as the control group. During 15 days after the transplantation of cancer cells the proliferation of solid tumor in each group was observed.
The effects on the solid tumor proliferation of the composition(AG60) of the present invention, acriflavine neutral(An) and guanosine hydrate(Gh) were determined by measuring the size of cancer tissues in control group A, the acriflavine neutral group B, the guanosine hydrate group C and the present composition(AG60) group D from the fifth day to the fifteenth day after the transplantation of cancer cells at an interval of 2 days, and are presented in Table 3 and FIG. 5. […] In group D to which the composition(AG60) of the present invention was administered, the size of cancer tissue was measured as 1.5 mm after 5 days from transplantation and, thereafter, increased 0.35 mm every 2 days.

In data set [3] the test system is human hepatoma cells SK-HEP-1. Put plainly: MTT in vitro test, cell survival rate of human hepatoma cell line SK-HEP-1. The class given is cell-based. On the procedure: as §1, §2, §3

As for `Nc1nc2c(ncn2[C@@H]2O[C@H](CO)[C@@H](O)[C@H]2O)c(=O)[nH]1` [Guanosine, 2-amino-9-β-D-ribofuranosyl-9H-purin-6-(1H)-one], the solubility in water entry in data set [1] was “slighly soluble in cold water but soluble in warm water”.

`Nc1nc2c(ncn2[C@@H]2O[C@H](CO)[C@@H](O)[C@H]2O)c(=O)[nH]1.O` [Guanosine hydrate]: the “cytotoxicity / anti-cancer activity in words” value in data set [2] (3LL cells) and in data set [3] (SK-HEP-1 cells) was “did not show any anti-cancer activity” in each case. Besides, the IC50 is 1520 mg/L in data set [2] (Mus musculus, 3LL, 48 h, read-out: ID value (survival rate of cells)) and 1530 mg/L in data set [3] (Homo sapiens, SK-HEP1, 48 h, read-out: ID value (survival rate of cells)). Further, the “size of cancer tissue (solid tumor proliferation)” value worked out at 4.7 mm in the data set on Ehrlich solid tumor (day 5); 6.8 mm with Ehrlich solid tumor (day 7); 8.5 mm with Ehrlich solid tumor (day 9); 12.3 mm in the data set with Ehrlich solid tumor (day 11); 14.5 mm in the data set on Ehrlich solid tumor (day 13); 18.2 mm in the data set with Ehrlich solid tumor (day 15). In addition, the “inhibition of solid tumor proliferation in words” value in the data set with Ehrlich solid tumor (i.m. once a day for 15 days) is reported as “showed the similar proliferation pattern to each other”.

These data come from patent publication US5891864A, “Anti-cancer compositions” (Han; Yung Bok, priority 1995, dated 1999).
